# Patent publication US20250032624A1, “SMALL MOLECULE DEGRADATION METHODS FOR TREATING ALS/FTD” (University of Florida Research Foundation, Incorporated, priority 2021, published 2025)
# What was measured:
# [1] = test system: r(G4C2)^exp-containing C9orf72 transcript; experiment: C9orf72 transcript RT-qPCR in c9ALS/FTD iPSNs; format: cell-based, human
# Method: Differentiated motor neurons (iPSNs) were derived from the iPSCs listed in the previous section. The differentiation process was based on a previously reported method with slight modifications^33,34. Briefly, iPSCs were plated into Matrigel-coated 100 mm dishes (30-40% confluence). Neuroepithelial induction was performed by replacing the Basal medium with Stage 1 medium [47.5% IMDM (Iscove's Modified Dulbecco's Medium), 47.5% F12 medium, 1% NEAA (Non-Essential Amino Acids) (Life Technologies), 2% B27 (Invitrogen), 1% N2 (Invitrogen), 1% PSA (Penicillin-Streptomycin-Amphotericin), 0.2 μM LDN193189 (Stemgent), 10 μM SB431542 (STEMCELL Technologies) and 3 μM CHIR99021 (Sigma-Aldrich)]. The medium was changed daily for 6 days, after which cells were detached from plates using Accutase (STEMCELL Technologies). Cells were seeded into 6-well plates (1.5×10^6 cells/well) in 3 mL of Stage 2 medium [Stage 1 medium supplemented with 0.1 μM All-trans RA (Sigma-Aldrich) and 1 μM SAG (Cayman Chemicals)]. Cells were maintained in Stage 2 medium, with daily medium changes, through Day 11 of the differentiation process. On Day 12, the Stage 2 cell medium was removed and replaced with Stage 3 medium [47.5% IMDM, 47.5% F12 medium, 1% NEAA, 2% B27, 1% N2, 1% PSA, 0.1 μM Compound E (Millipore; Catalog #: 565790), 2.5 μM DAPT (Sigma-Aldrich), 0.1 μM db-cAMP (Millipore), 0.5 μM All-trans RA, 0.1 μM SAG, 20 ng/mL ascorbic acid, 10 ng/mL BDNF (STEMCELL Technologies), and 10 ng/mL GDNF (STEMCELL Technologies)]. This medium was replaced every three days until the end of the differentiation process. Typically, a minimum of 18 days is required to produce immature differentiated motor neurons; 30 days of differentiation is the standard for producing mature differentiated spinal neurons. The cells can be maintained in medium for an additional 14-28 days after reaching maturation. […]
# For iPSNs cells were differentiated, following the protocol outlined above, until Day 15. […] RNA was extracted as described above and the expression levels of C9orf72 variants was determined by RT-qPCR and normalized to GAPDH. […]
# [2] = test system: r(G4C2)^exp-containing foci; experiment: RNA FISH of r(G4C2)exp-containing nuclear foci in cortex of +/+PWR500 mice; format: in vivo, mouse; settings: +/+PWR500 mice vs vehicle
# Method: A total of 20 age- and gender-matched mice (12 +/+PWR500 [5 Male and 7 Female] and 8 WT [4 Male and 4 Female]), ranging from 18-21 weeks old were used in therapeutic efficacy studies (Table 4). Mice were treated with a single bolus injection of 33 nmol of compound 2 formulated in 1% (v/v) DMSO/99% water, administered by an intracerebroventricular injection (ICV). Three weeks post injection, mice were euthanized, and tissue was harvested for study.
# Postmortem brain tissue was excised and sliced along the sagittal plane at the midline. The right hemisphere was flash frozen with Optimal Cutting Temperature (OCT) compound in 2-methylbutane in liquid nitrogen. Frozen tissue was sectioned ([…]) using a cryostat and slides were stained as previously described.^39 Briefly, frozen sections were fixed in 4% paraformaldehyde in 1×DPBS for 20 minutes then incubated in ice cold 70% ethanol at 4° C. for 30 minutes. Once fixed, slides were incubated for 10 minutes in 40% formamide in 2×SSC Buffer at room temperature. Slides were blocked in 1× Hybridization Buffer (40% formamide, 2×SSC Buffer, […] BSA, 100 mg/mL dextran sulfate, 250 μg/mL tRNA, and 2 mM vanadyl sulfate) for 30 minutes at 55° C. Slides were then incubated for 3 hours at 55° C. with 200 ng/mL of FISH probe (Table 1) in 1× Hybridization Buffer. […]
# [3] = test system: C9orf72 and transcriptome; experiment: RNA-seq in iPSCs from healthy donors; format: cell-based, human; settings: healthy donor iPSCs
# Method: Total RNA integrity was confirmed by Agilent 2100 Bioanalyzer RNA nano chip, and the quantity was measured by Qubit 2.0 Fluorometer (Invitrogen). The library preparation was performed using NEBNext Ultra II Directional RNA kit (NEB, E7760) in combination with NEBNext rRNA depletion module (NEB, E6310) and RNA fragmentation module (NEB, E6150S), following manufacturer's recommendations. Briefly, a total of 200 ng RNA was first processed with depleted of ribosomal RNA, and then randomly fragmented to achieve range between 150 to 300 nucleotides. The fragmented RNAs were random primed for the first-strand synthesis, and the second strand was synthesized with dUTPs. The strand information is thus preserved by using USER enzyme (Uracil-specific excision reagent). The cDNA was PCR amplified and pooled equimolar to load onto the NextSeq 500 v2.5 flow cell and sequenced with 2×40 bp paired-end method. The output fastq files were aligned using STAR 3^5. The read counts of specific regions were extracted using samtools.^36 The global differential gene expression analysis was performed using featureCounts and Deseq2.^37,38
smiles,measurement,setting,value
CCOC(=O)C1=C(Nc2ccccc2)S/C(=C\c2ccc(OCCOCCOCCOCCNC(=O)CCCOc3ccc4c(c3)c3cc5c(C(=O)N[C@H](C)CN(C)C)nccc5c(C)c3n4C)c(O)c2)C1=O [ALS Compound Formula I],exon 1b transcript abundance,[1],unaffected
same,decrease in C9orf72 exon 2-3 abundance,[1]; 500 nM,~40%
same,decrease in C9orf72 intron 1 levels,[1]; 500 nM,~50%
same,number of r(G4C2)^exp-containing foci in the nuclei of cortex neurons,[2],significantly reduced
same,C9orf72 read count,[3],no effect
same,intron 1:exon 2 ratio,[3],no effect
same,off-target effects transcriptome-wide,[3],minimal off-target effects
